Source: patent US5153219A, “Thiocarbamate sulfoxide composition for deterring ethanol ingestion” (Faiman; Morris D., priority 1991, dated 1992)
Read-outs that look alike come from different tables or passages of the source. Each block holds one compound with its values, some of them ahead of it.

What was measured:
[1] = test system: liver mitochondrial low Km ALDH; conditions: Hart et al., cited from earlier work; for dose at which 50% ALDH inhibition (ID50) occurred: intraperitoneal (IP) administration
[2] = target: T1, rat liver mitochondrial low Km ALDH (Rattus norvegicus, UniProt P11884); assay: In vitro inhibition of rat liver mitochondrial low Km ALDH (isolated mitochondria incubation); assay type: biochemical
T1 construct: Mitochondria were isolated from the liver of untreated rats; from tissue; host or cells: liver mitochondria of male Sprague-Dawley derived rats
T1 sequence (P11884 20-519): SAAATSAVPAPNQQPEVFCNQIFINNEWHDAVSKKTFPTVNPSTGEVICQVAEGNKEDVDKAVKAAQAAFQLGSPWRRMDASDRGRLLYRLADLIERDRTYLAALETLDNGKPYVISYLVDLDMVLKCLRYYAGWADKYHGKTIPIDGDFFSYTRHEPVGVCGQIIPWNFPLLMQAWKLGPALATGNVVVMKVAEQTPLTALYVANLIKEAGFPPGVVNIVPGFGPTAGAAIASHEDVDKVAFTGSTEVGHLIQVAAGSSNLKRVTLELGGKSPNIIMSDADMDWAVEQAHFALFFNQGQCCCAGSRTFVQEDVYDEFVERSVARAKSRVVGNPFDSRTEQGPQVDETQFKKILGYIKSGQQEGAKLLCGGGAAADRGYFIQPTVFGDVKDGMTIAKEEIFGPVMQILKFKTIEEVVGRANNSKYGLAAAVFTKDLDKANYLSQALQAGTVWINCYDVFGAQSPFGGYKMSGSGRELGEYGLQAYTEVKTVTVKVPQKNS
Procedure: 1. Drug Concentration. Concentrations of DETC-Me sulfoxide ("DETC-Me SO") studied were 0.2 μM, 2.0 μM, 20 μM and 200 μM. Concentrations of DDTC-Me SO studied were 0.5 μM, 2.5 μM, 10 μM, 25 μM, 50 μM and 100 μM.
2. Animal Liver Preparation. Male Sprague-Dawley derived rats weighing 200-400 g were anesthetized with carbon dioxide and then decapitated. The livers from untreated rats were homogenized in 0.25M sucrose and differential centrifugation carried out to isolate the mitochondrial fraction. The mitochodria were solubilized with sodium deoxycholate, and mitochondrial low Km ALDH activity determined by the method of S.O.C. Tottmar et al., Biochem. J., 135, 577 (1973).
3. In Vitro Incubation. Mitochondria were isolated from the liver of untreated rats as described in section (2) and resuspended in 0.1M phosphate buffer (pH=7.4). Incubations contained 2 mg of mitochondrial protein, to which was added DETC-Me SO or DDTC-Me SO in the concentrations described above. The DETC-Me SO or DDTC-Me SO was dissolved in ethanol and the incubations carried out for one hour. Control incubations contained ethanol alone.
4. Aldehyde Dehydrogenase Analysis. At the end of the incubation, the mitochondria were isolated by centrifugation, resuspended in 0.25M sucrose buffer and solubilized with deoxycholate. Low Km ALDH activity was determined by the method of S.O.C. Tottmar et al., cited above.

[3] = target: T1, rat liver mitochondrial low Km ALDH; assay: Liver aldehyde dehydrogenase determination in vivo after dosing rats; conditions: for in vivo ALDH inhibition relative to comparators (in words): versus DETC-Me, disulfiram or other disulfiram metabolites; for ED50: rat, 8 h, read-out: dose required to inhibit 50% of the low Km ALDH
Procedure: 1. Drug Doses. Doses of DETC-Me SO studied were 1.3 mg/kg, 2.6 mg/kg, 5.2 mg/kg, 10.3 mg/kg and 20.6 mg/kg.
2. Animals. Male Sprague Dawley derived rats weighing 200-400 g were used. The rats were bred from a resident colony maintained in the Animals Care Unit at the University of Kansas. Rats were maintained on a 12-hour light-dark cycle with access to food and water ad lib until the night before an experiment, at which time food was removed. Animals were fasted for 12 hours prior to drug administration.
3. Timing. In these in vivo studies, rats were fasted 12 hours before beginning the experiment. All experiments were carried out in the morning. Rats were treated with the doses of DETC-Me SO or DETC-Me described above, which were dissolved in polyethylene glycol 200. Eight hours later, the rats were anesthetized with carbon dioxide and then decapitated. The liver was quickly removed and the low Km aldehyde dehydrogenase determined. Each data point on FIG. 4 represents an average of four rats. Control rats were treated with […] only, and each control data point also represents an average of four rats.
4. Aldehyde Dehydrogenase Determination. The liver from drug-treated and control rats was homogenized in 0.25M sucrose and differential centrifugation was carried out to isolate the mitochondrial fraction. The mitochondria were solubilized with sodium deoxycholate, and mitochondrial low Km and total (high and low) aldehyde dehydrogenase activity determined by the method of S.O.C. Tottmar et al., cited above.

[4] = Plasma acetaldehyde determination after ethanol challenge; assay type: in vivo, rat; conditions: male rats
Procedure: Rats maintained as described in Ex. 4, fasted for 18 hours, were given 10.3 mg/kg of the DETC-Me SO intraperitoneally, dissolved in polyethylene glycol 200 and then challenged eight hours later with a dose of ethanol (1 g/kg; 20% v/v) also administered intraperitoneally. The rats were anesthetized with phenobarbital 30 minutes after alcohol administration and blood was taken by aortic puncture, being drawn into a heparinized syringe. Plasma acetaldehyde was determined by the method of C.O.P. Eriksson et al., Anal. Biochem., 80, 116 (1977). Plasma concentrations were determined based on a standard curve obtained with known concentrations of acetaldehyde. Control rats were treated with 1 ml/kg of polyethylene glycol 200.

[5] = test system: liver mitochondrial low Km ALDH; conditions: Hart et al.; cited from earlier work

Structure (SMILES): CCN(CC)C(=S)SC [DDTC-Me, diethyldithiocarbamate-methyl ester]
- dose at which 50% ALDH inhibition (ID50) occurred [1]: 15.5 mg/kg

- in vitro activity as inhibitor of low Km ALDH (in words) [2]: extremely potent inhibitor
- in vitro activity as inhibitor of low Km ALDH (in words) ([2]; listed as DETC-Me sulfoxide): active in vitro
- in vivo ALDH inhibition relative to comparators (in words) [3]: substantially more potent
- in vivo ALDH inhibition relative to comparators (in words) ([3]; listed as DETC-Me sulfoxide): about twice as effective
- ED50 ([3]; male rats, intraperitoneal (IP), liver taken eight hours after dosing, FIG. 4): 3.6 mg/kg
Structure (SMILES): CCN(CC)C(=O)[S+](C)[O-] (stereo not drawn) [DETC-Me SO, S-Methyl-N,N-Diethylthiolcarbamate Sulfoxide]
- plasma acetaldehyde ([4]; 10.3 mg/kg IP in polyethylene glycol 200, then 1 g/kg ethanol (20% v/v) IP, FIG. 5): approximately 900 μM
- effect on plasma acetaldehyde after an ethanol challenge (in words) ([4]; 10.3 mg/kg IP, 1 g/kg ethanol IP): markedly increase plasma acetaldehyde

Structure (SMILES): CCN(CC)C(=O)SC [DETC-Me, S-Methyl-N,N-Diethylthiolcarbamate]
- inhibition at 200 µM ([2]; 1 h, read-out: inhibition of rat liver mitochondrial low Km ALDH): 8%
- in vitro activity as inhibitor of low Km ALDH (in words) [2]: not
- ED50 ([3]; ip): 6.5 mg/kg
- potency as inhibitor of liver mitochondrial low Km ALDH relative to DDTC-Me, DDTC or disulfiram (in words) [1]: more potent inhibitor
- dose at which 50% ALDH inhibition (ID50) occurred [1]: 6.5 mg/kg
- in vitro inhibition of liver mitochondrial low Km ALDH (in words) [5]: not an effective in vitro inhibitor

Structure (SMILES): CCN(CC)C(=S)SSC(=S)N(CC)CC [disulfiram, tetraethylthiuram disulfide]
- dose at which 50% ALDH inhibition (ID50) occurred [1]: 56.2 mg/kg
